Results published in patent US20110136868A1, “AGENTS FOR INHIBITING OSTEOCLASTOGENESIS AND/OR OSTEOCLAST ACTIVATION” (University of Oxford, priority 2009, published 2011).
Entries after “also recorded” stand apart in the source; their conditions may differ.

Assays:
Mouse bone marrow cells [1] = assay: in vitro RANKL-dependent osteoclastogenesis, TRAP positive osteoclast count; type: cell-based
Experimental: Cultures on plastic plates were fixed and stained for TRAP (tartrate resistant acid […]). TRAP positive multi-nuclear (>3 nuclei) osteoclast cells were counted.
B. Mouse bone marrow cells were cultured in the presence of 25 ng/ml M-CSF with 50 ng/ml RANKL in 48-well plates. On day 3 d-PDMP (1.25, 5 or 20 μM), NB-DNJ, NB-DGJ, or N-OD-DNJ (5, 50, or 500 μM) were added. Cells were cultured for another 24 hours before fixed and stained for TRAP. TRAP positive osteoclast cells mature were counted on day 4 (left). Morphology of 4 day osteoclasts.

[2] = system: human, monocyte-derived OC; assay: RANKL- and M-CSF-dependent development of human monocyte-derived OC; type: cell-based; details: added either in the beginning or during OC differentiation cultures
[3] = system: MAPK signaling (ERK, p38, JNK); assay: MAPK signalling during osteoclastogenesis, immunoblot pERK1/2, pP38, pJNK after RANKL or M-CSF; type: cell-based, mouse; details: BMCs day 3, serum starved overnight
Experimental: (§1) BMCs were cultured to day 3 then starved in 0.5% serum medium overnight. Cells were treated with RANKL (A) or M-CSF (B) for the time points indicated and then immunoblotted with α-pERK1/2, α-pP38, α-pJNK antibodies. Membranes were stripped and restained with α-ERK, α-P38, α-JNK antibodies. […] Overnight serum starved OC were treated as indicated as subsequently stained with anti-NFATc1 and viewed by immunofluorescent microscopy. NB-DNJ abrogated the M-CSF+RANKL-induced accumulation of NFAtc1 in the nyclei. (D) BMCs were cultured 48 h with different combination of M-CSF, RANKL and NB-DNJ. Cells were collected and nuclear protein extracted and NFATc1 expression was checked by Western blot. Staining of histone-1 served as loading control.

NFATc1 = NFATc1 nuclear accumulation in OC (immunofluorescence, Western blot of nuclear protein); type: cell-based, mouse
Experimental: as §1

[4] = system: RAW 264.7 murine macrophage cells; assay: Association of TRAF6 and Src with lipid rafts, sucrose gradient fractionation; type: cell-based; details: 50 ng/ml RANKL, 4 days
Experimental: Localization of TRAF6, […] GM1 gangliosides in lipid rafts (fraction 3-5) or non-raft fractions (fraction 7-9) in RAW 264.7 murine macrophage cells were cultured in medium only (control), in the presence of 50 ng/ml RANKL or RANKL+NB-DNJ in 48-well plates for 4 days. Cell lysates were prepared and separated using discontinuous sucrose gradient ultracentrifugation. A total of 9 fractions (1 ml each) were collected from the top to the bottom of the gradients, fraction 2 to 5 were positive for GM1 gangliosides, i.e. contained lipid rafts. The non-raft fractions were 7 to 9. Without RANKL, TRAF6 localises in the non-raft fraction while Src is presented in both raft and nonraft fractions. After RANKL treatment, TRAF6 was detected in raft fraction and Src almost totally shifted into the raft fractions.

osteoclast activation [5] = assay: in vivo alpha-galactosylceramide-induced OC activation, serum CTX levels; design: species or system C57BL/6 mice
Experimental: NB-DNJ (500 mg/Kg) or PBS were injected intraperitoneal (i.p.) once a day for 6 consecutive days in 8 wk old C57BL/6 mice. Alpha-galactosylceramide or PBS was administered by a single i.p. injection of 2 μg on day 3. Serum collected on day 7 was used to determine carboxyterminal cross-linking telopeptide of type 1 collagen (CTX) levels (n=4-5 8 wk old female C57BL/6 mice).

osteoclast activation [6] = assay: in vivo RANKL-induced OC activation, serum CTX levels; design: species or system mice; details: NB-DNJ 500 mg/Kg i.p. daily, RANKL 4 mg/day i.p. from day 3
[7] = system: MAPK signaling (ERK, p38, JNK); assay: GM3-induced ERK, P38, JNK phosphorylation in OC, immunoblot; type: cell-based, mouse
Experimental: D. OC were cultured with M-CSF+RANKL to day 3 then starved in 0.5% serum medium overnight. Cells were treated with GM3 or GM3+NB-DNJ for the time points indicated and then immunoblotted with α-pERK1/2, α-pP38, α-pJNK antibodies. Membranes were stripped and restained with α-ERK, α-P38, α-JNK antibodies.

α-glucosidase = details: Platt et al. 1994; cited from earlier work
β-glucosidase = details: Platt et al. 1994; cited from earlier work
osteoclast formation = details: Iwamoto et al. 2001, cited from earlier work
[8] = molecular target: T1, ceramide glucosyltransferase (CGT) (Homo sapiens, UniProt Q16739); details: literature; cited from earlier work
T1 sequence (Q16739 1-394): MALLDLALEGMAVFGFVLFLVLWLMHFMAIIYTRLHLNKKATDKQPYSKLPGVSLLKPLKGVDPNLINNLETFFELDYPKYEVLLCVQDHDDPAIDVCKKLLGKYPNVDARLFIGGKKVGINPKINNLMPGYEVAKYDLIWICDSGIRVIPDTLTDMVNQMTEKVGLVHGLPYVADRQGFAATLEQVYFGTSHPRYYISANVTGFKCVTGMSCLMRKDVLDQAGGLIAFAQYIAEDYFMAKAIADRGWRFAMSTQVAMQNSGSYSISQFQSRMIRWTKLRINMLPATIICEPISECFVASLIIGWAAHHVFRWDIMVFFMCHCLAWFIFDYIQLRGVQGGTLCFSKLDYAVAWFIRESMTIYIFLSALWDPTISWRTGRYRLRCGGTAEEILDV

Mouse bone marrow cells [9] = assay: Promotion of osteoclastogenesis by GM3 and IGF-1 with M-CSF and RANKL, TRAP positive mature osteoclast count; type: cell-based
Experimental: A. Mouse bone marrow cells were cultured in the presence of 25 ng/ml M-CSF with 50 ng/ml RANKL and GM3 (0.05, 0.5 or 5 μM) in 48-well plates for 4 days. Cultures on plastic plates were fixed and stained for TRAP. TRAP positive mature osteoclast cells were counted.
As well as RANKL+M-CSF, IGF-1 at the indicated concentrations was added.
C. […] OC were developed in the presence of RANKL+M-CSF (control), or these two cytokines plus IGF-1, GM3 or IGF-1+GM3.

Compound: CCCCN1C[C@H](O)[C@@H](O)[C@@H](O)[C@H]1CO [NB-DGJ, N-butyl-deoxygalactonojirimycin]
- reduction in OC activation compared with NB-DNJ (Mouse bone marrow cells [1]): significantly less potent

Compound: CCCCN1C[C@H](O)[C@@H](O)[C@H](O)[C@H]1CO [NB-DNJ, N-butyl-deoxynojirimycin]
- inhibition of RANKL- and M-CSF-dependent development of murine OC (Mouse bone marrow cells [1]; added either in the beginning or during OC differentiation cultures): inhibit RANKL- and M-CSF-dependent development of murine as well as human, monocyte-derived OC in a dose dependent manner
- inhibition of RANKL- and M-CSF-dependent development of human monocyte-derived OC [2]: inhibit RANKL- and M-CSF-dependent development of murine as well as human, monocyte-derived OC in a dose dependent manner
- RANKL- and M-CSF-dependent phosphorylation of ERK, JNK and p38 [3]: phosphotylation of p38 and to a lesser extend of ERKa,d Jnk is observed; also recorded: significantly reduced
- nuclear NFATc1 expression (NFATc1; Western blot, BMCs cultured 48 h with M-CSF, RANKL): Considerably less nuclear NFTc1
- M-CSF+RANKL-induced accumulation of NFATc1 in the nuclei (NFATc1; immunofluorescent microscopy, serum starved OC): abrogated; also recorded: reduced localisation of NFATc in the nucleus
- RANKL-induced localisation of TRAF6 and Src in lipid rafts [4]: TRAF6 and Src are excluded from the rafts
- serum CTX levels, αGC-induced OC activation (osteoclast activation [5]; NB-DNJ 500 mg/Kg i.p. daily plus alpha-galactosylceramide 2 μg i.p. day 3, serum day 7): inhibits a-galactosylceramide-induced OC activation; also recorded: returned to baseline
- serum CTX levels, NB-DNJ only (osteoclast activation [5]; mice receiving only NB-DNJ, p>0.05): not significantly different to vehicle controls
- serum CTX levels, RANKL-induced OC activation (osteoclast activation [6]): inhibits RANKL-induced OC activation
- GM3-promoted phosphorylation of ERK, P38 and JNK, effect of NB-DNJ [7]: abrogated
- α-glucosidase inhibitory activity (α-glucosidase): have both α- and β-glucosidase inhibitory activities
- β-glucosidase inhibitory activity (β-glucosidase): have both α- and β-glucosidase inhibitory activities

Compound: CCCCCCCCCC(=O)N[C@H](CN1CCOCC1)[C@H](O)c1ccccc1 [d-PDMP, D-threo-1-phenyl-2-decanoylamin-3-morpholino-1-propanol]
- reduction in OC activation compared with NB-DNJ (Mouse bone marrow cells [1]): as effective
- inhibition of osteoclast formation / OC development (osteoclast formation): can inhibit the osteoclast formation; also recorded: can prevent OC development
- inhibitory effect on CGT [8]: known CGT inhibitor

Compound: CCCCCCCCCCCCCCCCCCCCCCCCCC(=O)N[C@@H](CO[C@H]1O[C@H](CO)[C@H](O)[C@H](O)[C@H]1O)[C@H](O)[C@H](O)CCCCCCCCCCCCCC [αGC, alpha-galactosylceramide]
- increase of serum CTX levels (osteoclast activation [5]; mice receiving αGC, p<0.01): ~50%

Compound: IGF-1: growth factor known to promote myeloma growth and OC activation
- osteoclastogenesis with IGF-1 (Mouse bone marrow cells [9]; RANKL+M-CSF plus IGF-1): promotes osteoclastogenesis
- OC maturation, GM3 plus IGF-1 (Mouse bone marrow cells [9]; RANKL+M-CSF plus IGF-1 and GM3): co-operates with GM3 in promoting osteoclastogenesis

Compound: lactosylceramide
- effect on RANKL-dependent osteoclastogenesis (osteoclast formation; exogenous, in vitro): synergistic effect
